Test results from patent US20090209578A1, “CHEMICAL COMPOUNDS” (PFIZER INC, priority 2005, published 2009).

These compounds were tested against HIV-1 fusion (gp160 induced cell-cell fusion; HeLa P4 cell line expressing CCR5 and CD4 / CHO-Tat10 cell line) (Homo sapiens, UniProt P51681) (assay: gp160 induced cell-cell fusion assay). Conditions: HeLa P4 / CHO-Tat10 cells, read-out: IC50.
Format: cell-based
Text: Biol., 60, 147-52 (1996); and/or by using the intracellular calcium mobilisation assays as described by the same authors, and/or inhibiting cell fusion following procedures disclosed in Bradley et al., J Biomol Screen 9, 516-24 (2004).
The gp160 induced cell-cell fusion assay uses a HeLa P4 cell line and a CHO-Tat10 cell line.
The HeLa P4 cell line expresses CCR5 and CD4 and has been transfected with HIV-1 LTR-β-Galactosidase. The media for this cell line is Dulbecco modified eagle's medium (D-MEM) (without L-glutamine) containing 10% foetal calf serum (FCS), 2 mM L-glutamine, penicillin/streptomycin (Pen/Strep; 100 U/mL penicillin+[…] streptomycin), and 1 μg/ml puromycin.
The CHO cell line is a Tat (transcriptional trans activator)-expressing clone from a CHO JRR17.1 cell line that has been transfected with pTat puro plasmid. The media for this cell line is rich medium for mammalian cell culture originally developed at Roswell Park Memorial Institute RPMI1640 (without L-glutamine) containing 10% FCS, 2 mM L-glutamine, 0.5 mg/ml Hygromycin B and 12 µg/ml puromycin. The CHO JRR17.1 line expresses gp160 (JRFL) and is a clone that has been selected for its ability to fuse with a CCR5/CD4 expressing cell line.
Upon cell fusion, Tat present in the CHO cell is able to transactivate the HIV-1 long terminal repeat (LTR) present in the HeLa cell leading to the expression of the β-Galactosidase enzyme. This expression is then measured using a Fluor Ace™ β-Galactosidase reporter assay kit (Bio-Rad cat no. 170-3150). This kit is a quantitative fluorescent assay that determines the level of expression of β-galactosidase using 4-methylumbelliferyl-galactopyranoside (MUG) as substrate. β-Galactosidase hydrolyses the fluorogenic substrate resulting in release of the fluorescent molecule 4-methylumbelliferone (4MU). Fluorescence of 4-methylumbelliferone is then measured on a fluorometer using an excitation wavelength of 360 nm and emission wavelength of 460 nm.
Compounds that inhibit fusion will give rise to a reduced signal and, following solubilisation in an appropriate solvent and dilution in culture medium, a dose-response curve for each compound can be used to calculate IC50 values.

HIV-1 fusion (gp160 induced cell-cell fusion; HeLa P4 cell line expressing CCR5 and CD4 / CHO-Tat10 cell line), sequence (P51681 whole entry, the tested form may be a part): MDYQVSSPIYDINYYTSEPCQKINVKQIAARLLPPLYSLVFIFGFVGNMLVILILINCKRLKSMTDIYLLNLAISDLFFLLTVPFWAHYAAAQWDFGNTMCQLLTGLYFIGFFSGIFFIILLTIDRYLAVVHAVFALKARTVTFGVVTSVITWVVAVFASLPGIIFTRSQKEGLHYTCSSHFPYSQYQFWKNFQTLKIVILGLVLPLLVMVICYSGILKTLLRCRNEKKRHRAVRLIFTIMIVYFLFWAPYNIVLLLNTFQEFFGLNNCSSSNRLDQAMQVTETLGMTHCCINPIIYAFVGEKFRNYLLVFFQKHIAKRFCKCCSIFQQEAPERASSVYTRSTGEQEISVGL

In order of rising IC50:
1. Cc1nc2c(n1C1CCN(C(C)C[C@H](NC(=O)C3CCC3)c3ccccc3)CC1)CN(C(=O)C(C)C)CC2 (single isomer, unassigned) [Example 24]  0.2 nM
2. COC(=O)N1CCc2nc(C)n(C3CCN(C(C)CC(NC(=O)C4CCC4)c4ccccc4)CC3)c2C1 (mixture of isomers) [Example 10]  0.3 nM
3. CC(=O)N1CCc2nc(C)n(C3CCN(C(C)C[C@H](NC(=O)C4CCC(F)(F)CC4)c4cccc(F)c4)CC3)c2C1 (single isomer, unassigned) [Example 51]  0.3 nM
4. CC(=O)N1CCc2nc(C)n(C3CCN(C(C)C[C@H](NC(=O)CC(C)C)c4cccc(F)c4)CC3)c2C1 (single isomer, unassigned) [Example 50]  0.4 nM
5. Cc1nc2c(n1C1CCN(C(C)C[C@H](NC(=O)C3CC(F)(F)C3)c3ccccc3)CC1)CN(C(=O)C(C)C)CC2 (stereo partly drawn) [Example 25, 3,3-Difluoro-N-{(1S)-3-[4-(5-isobutyryl-2-methyl-4,5,6,7-tetrahydro-3H-imidazo[4,5-c]pyridin-3-yl)piperidin-1-yl]-1-phenylbutyl}cyclobutanecarboxamide]  0.4 nM
6. CC(C)c1nnnn1C1CCN(C(C)C[C@H](NC(=O)C2CCC(F)(F)CC2)c2ccccc2)CC1 (single isomer, unassigned) [Example 121]  0.5 nM
7. Cc1nc2c(n1C1CCN(C(C)C[C@H](NC(=O)C3(C)CC3)c3ccccc3)CC1)CN(C(=O)C(C)C)CC2 (some centres unmarked) [Example 22]  0.5 nM
8. COC(=O)N1CCc2nc(C)n(C3CCN(C(C)CC(NC(=O)C(C)C)c4ccccc4)CC3)c2C1 (mixture of isomers) [Example 11]  0.6 nM
9. COC(=O)N1CCc2nc(C)n(C3CCN(C(C)CC(NC(=O)C4CC4)c4ccccc4)CC3)c2C1 (mixture of isomers) [Example 12]  0.6 nM
10. COC(=O)N1CCc2c(nc(C)n2C2CCN(C(C)CC(NC(=O)C(C)C)c3cccc(F)c3)CC2)C1 (mixture of isomers) [Example 77]  0.6 nM
11. CCCC(=O)N[C@@H](CC(C)N1CCC(n2c(C)nc3c2CN(C(C)=O)CC3)CC1)c1cccc(F)c1 (single isomer, unassigned) [Example 47]  0.7 nM
12. COC(=O)N1CCc2nc(C)n(C3CCN(C(C)C[C@H](NC(=O)C4CCC4(F)F)c4ccccc4)CC3)c2C1 (some centres unmarked) [Example 5]  0.7 nM
13. COC(=O)N1CCc2nc(C)n(C3CCN(C(C)CC(NC(=O)CC4CC4)c4ccccc4)CC3)c2C1 (mixture of isomers) [Example 7]  0.9 nM
14. COC(=O)N1CCc2nc(C)n(C3CCN(C(C)CC(NC(=O)C4CCC(F)(F)CC4)c4ccccc4)CC3)c2C1 (mixture of isomers) [Example 6]  1 nM
15. COC(=O)N1CCc2c(nc(C)n2C2CCN(C(C)CC(NC(=O)C3CC3)c3cccc(F)c3)CC2)C1 (mixture of isomers) [Example 78]  1.8 nM
16. CC(C[C@H](NC(=O)C1CCC(F)(F)CC1)c1ccccc1)N1CCC(c2nnnn2C(C)C)CC1 (single isomer, unassigned) [Example 125]  2.2 nM
17. COC(=O)N1CCc2c(nc(C)n2C2CCN(C(C)C[C@H](NC(C)=O)c3ccccc3)CC2)C1 (single isomer, unassigned) [Example 72]  2.4 nM
18. Cc1noc(C2CCN(C(C)C[C@H](NC(=O)C3CCC(F)(F)CC3)c3ccccc3)CC2)n1 (single isomer, unassigned) [Example 109]  4.6 nM
19. CC(CC(NC(=O)C1CCC(F)(F)CC1)c1ccccc1)N1CCC(n2ccnc2)CC1 (mixture of isomers) [Example 127]  4.7 nM
20. COC(=O)N1CCc2c(nc(C)n2C2CCN(C(C)CC(NC(C)=O)c3cccc(F)c3)CC2)C1 (mixture of isomers) [Example 76]  5.5 nM
21. CCOC(=O)N1CCc2c(nc(C)n2C2CCN(C(C)C[C@H](NC(=O)C(C)C)c3cccc(F)c3)CC2)C1 (single isomer, unassigned) [Example 95]  5.5 nM
22. CC(C)Cc1nnc(C2CCN(C(C)CC(NC(=O)C3CCC(F)(F)CC3)c3ccccc3)CC2)o1 (mixture of isomers) [Example 130]  5.9 nM
23. COC(=O)N1CCc2nc(C)n(C3CCN(C(C)CC(NC(=O)C4CCS(=O)(=O)CC4)c4ccccc4)CC3)c2C1 (mixture of isomers) [Example 8]  6 nM
24. CCc1noc(C2CCN(C(C)CC(NC(=O)C3CCC(F)(F)CC3)c3ccccc3)CC2)n1 (mixture of isomers) [Example 129]  8.6 nM
25. COC(=O)N1CCc2c(nc(C)n2C2CCN(C(C)C[C@H](NC(C)=O)c3ccccc3)CC2)C1 (single isomer, unassigned) [Example 73]  9.1 nM
26. CCOC(=O)N1CCc2c(nc(C)n2C2CCN(C(C)C[C@H](NC(=O)C3CC3)c3cccc(F)c3)CC2)C1 (single isomer, unassigned) [Example 97]  10 nM
27. Cc1nc2c(n1C1CCN(C(C)C[C@H](NC(=O)C3CCC3)c3ccccc3)CC1)CN(C(=O)C(C)C)CC2 (single isomer, unassigned) [Example 30]  11 nM
28. CC(=O)N1CCc2c(nc(C)n2C2CCN(C(C)C[C@H](NC(=O)C(C)C)c3cccc(F)c3)CC2)C1 (single isomer, unassigned) [Example 93]  12.9 nM
29. COC(=O)N1CCc2nc(C)n(C3CCN(C(C)C[C@H](NC(=O)OC(C)(C)C)c4ccccc4)CC3)c2C1 (single isomer, unassigned) [Example 2]  14 nM
30. COC(=O)N1CCc2nc(C)n(C3CCN(C(C)CC(NC(=O)OC(C)C)c4ccccc4)CC3)c2C1 (mixture of isomers) [Example 14]  17.2 nM
31. CC(=O)N1CCc2c(nc(C)n2C2CCN(C(C)C[C@H](NC(=O)C3CC3)c3cccc(F)c3)CC2)C1 (single isomer, unassigned) [Example 101]  18.8 nM
32. CCOC(=O)N1CCc2c(nc(C)n2C2CCN(C(C)C[C@H](NC(=O)CC)c3cccc(F)c3)CC2)C1 (single isomer, unassigned) [Example 98]  19.1 nM
33. CC(C)c1nc(C2CCN(C(C)CC(NC(=O)C3CCC(F)(F)CC3)c3ccccc3)CC2)no1 (mixture of isomers) [Example 131]  20.2 nM
34. CC(C[C@H](NC(=O)C1CCC(F)(F)CC1)c1ccccc1)N1CCC(c2nnnn2C(C)C)CC1 (single isomer, unassigned) [Example 126]  21.8 nM
35. CCC(=O)N[C@@H](CC(C)N1CCC(n2c(C)nc3c2CCN(C(C)=O)C3)CC1)c1cccc(F)c1 (single isomer, unassigned) [Example 102]  25.9 nM
36. Cc1nc(C2CCN(C(C)CC(NC(=O)C3CCC(F)(F)CC3)c3ccccc3)CC2)no1 (mixture of isomers) [Example 128]  26 nM
37. Cc1nc2c(n1C1CCN(C(C)C[C@H](NC(=O)C(C)C)c3ccccc3)CC1)CN(C(=O)C(C)C)CC2 (single isomer, unassigned) [Example 29]  29.9 nM
38. COC(=O)N[C@@H](CC(C)N1CCC(n2c(C)nc3c2CN(C(=O)OC)CC3)CC1)c1ccccc1 (single isomer, unassigned) [Example 13A]  37.1 nM
39. Cc1nc2c(n1C1CCN(C(C)C[C@H](NC(=O)C3CCC3(F)F)c3ccccc3)CC1)CN(C(=O)C(C)C)CC2 (some centres unmarked) [Example 26]  38.5 nM
40. Cc1cc(C(C)C)n(C2CCN(C(C)C[C@H](NC(=O)C3CCC(F)(F)CC3)c3ccccc3)CC2)n1 (single isomer, unassigned) [Example 116]  50.5 nM
41. Cc1nc2c(n1C1CCN(C(C)C[C@H](NC(=O)CC(C)C)c3ccccc3)CC1)CN(C(=O)C(C)C)CC2 (single isomer, unassigned) [Example 28]  79.2 nM
42. CC(=O)N[C@@H](CC(C)N1CCC(n2c(C)nc3c2CN(C(=O)C(C)C)CC3)CC1)c1ccccc1 (single isomer, unassigned) [Example 31]  191 nM
43. Cc1noc(C2CCN(C(C)C[C@H](NC(=O)C3CCC(F)(F)CC3)c3ccccc3)CC2)n1 (single isomer, unassigned) [Example 110]  353 nM
44. Cc1noc(C2CCN(C(C)C[C@H](NC(=O)OC(C)(C)C)c3ccccc3)CC2)n1 (single isomer, unassigned) [Example 106A]  362 nM
45. COC(=O)N1CCc2nc(C)n(C3CCN(C(C)C[C@H](NC(=O)OC(C)(C)C)c4ccccc4)CC3)c2C1 (single isomer, unassigned) [Example 3]  434 nM
46. COC(=O)N[C@@H](CC(C)N1CCC(n2c(C)nc3c2CN(C(=O)OC)CC3)CC1)c1ccccc1 (single isomer, unassigned) [Example 13B]  600 nM
47. Cc1cc(C(C)C)n(C2CCN(C(C)C[C@H](NC(=O)C3CCC(F)(F)CC3)c3ccccc3)CC2)n1 (single isomer, unassigned) [Example 117]  1170 nM
